The source of these data is PMC11866186, “Novel Benzimidazole–Oxadiazole Derivatives as Anticancer Agents with VEGFR2 Inhibitory Activity: Design, Synthesis, In Vitro Anticancer Evaluation, and In Silico Studies” (ACS Omega, 2025).

The test system of one experiment is CCD-19Lu cell line. The experiment in a line: MTT assay, normal lung CCD-19Lu cells. The experiment is classed as cell-based. The following applies: CCD 19Lu, normal human lung cells, 24 h, read-out: IC50 against CCD-19Lu. As for the experimental part: (§1) By comparing the compounds’ cytotoxic effects against tumor cell lines and normal cell lines, the drug safety parameter for the anticancer activity of the compounds was evaluated, thereby confirming their cytoprotective qualities. In this study, normal human lung (CCD-19Lu) and normal human pancreas (hTERT-HPNE) cell lines were used as controls. The selectivity index (SI) calculated for the compounds tested scales the IC50 values of the compounds against various tumor cell lines with the IC50 values against normal cell lines (Table 2). […] The differential selectivity indices underscore the importance of targeted therapeutic strategies and the potential for these compounds to provide selective anticancer effects with reduced toxicity to normal cells.
(§2) Many analyses are performed to determine cell proliferation. MTT analysis is one of the viability determination tests. According to the working mechanism of the method, the dye containing the tetrazolium ring reacts with the dehydrogenase enzymes in the cells, only to be reduced and broken down by the metabolic cells, turning into water-insoluble formazan crystals. Color changes associated with mitochondrial activity and resulting from the addition of a solvent as a result of the reaction are measured in the microplate reader as optical density data values.[30] Cells were planted in flat-bottomed, 96-well, sterile, lidded, disposable microplates with 1 × 10^4 cells per well in 200 μL of appropriate medium and were allowed to adhere to the plate bottom by incubating for 24 h. At the end of 24 h, 100 μL of medium was withdrawn, and test substances at different concentrations, prepared in 100 μL, were added. Following the substance application, after a 24 h incubation period, 20 μL of stock MTT solution (MTT solution dissolved in 5 mg/mL PBS and filtered before application) was added to each well and protected from light, and the incubation continued for 3 h. Then, the media of the cells were completely withdrawn, and 100 μL of DMSO was added to dissolve the formazan crystals. After shaking in the dark for 15 min, the optical densities (absorbance) of the color changes at 540–570 and 650 nm reference wavelengths were read in the microplate reader. The data were calculated and created in Microsoft Office Excel. For this purpose, first, the blind well value and the control groups of colored substances were removed from the optical readings. The averages of optical densities and % viability values were made from Excel formula calculations, and the results were discussed. The viability of the control group was assumed to be 100%, and all other viability values were calculated based on this (series were run in n = 5 replicates).

The subject of a further experiment is A549 cell line. The experiment in a line: MTT assay, A549 cells. The experiment is classed as cell-based, human. The following applies: Homo sapiens, A549; MTT, 24 h; read-out: IC50 against A549. The protocol:
(§3) The synthesized compounds 4a–4s were screened for their in vitro anticancer activity via the standard MTT assay using three human tumor cell lines, namely, the human lung adenocarcinoma cell line (A549), the human breast cancer cell line (MCF-7), and the human pancreas cell line (PANC-1). Cisplatin was used as a reference drug. […] When the structures of the compounds are evaluated, it is seen that the compounds are derived from two different sources. There are hydroxyl and methoxy substituents on the phenyl ring attached to the benzimidazole. It has also been derivatized using different groups on the phenyl ring close to oxadiazole. When the activities in the PANC-1 cell line are evaluated, it is seen that the activity of compounds bearing the 2,4-dichloro substituent is especially high.
as §2
For orientation: Tetrazolium dyes change colour on reduction, which living cells bring about.

In another experiment the test system is MCF-7 cell line. The experiment in a line: MTT assay, MCF-7 cells. It is filed as cell-based, human. The settings on record: Homo sapiens, MCF7, 24 h, read-out: IC50 against MCF-7. The protocol: as §3, §2
The test system of the next experiment is hTERT-HPNE cell line. The experiment in a line: MTT assay, normal pancreas hTERT-HPNE cells. The following applies: normal human pancreas cells, 24 h, read-out: IC50 against hTERT-HPNE. The experiment is classed as cell-based. As for the experimental part:
as §1, §2

Another experiment relates to PANC-1 cell line. As to the kind of experiment: MTT assay, PANC-1 cells. The experiment is classed as cell-based, human. The settings on record: Homo sapiens, PANC-1, 24 h, MTT, 24 h; read-out: IC50 against PANC-1. The protocol:
Cisplatin was used as a reference drug. […] There are hydroxyl and methoxy substituents on the phenyl ring attached to the benzimidazole. It has also been derivatized using different groups on the phenyl ring close to oxadiazole.
as §2

Molecules are shown by their SMILES.

On to `COc1ccc(-c2nc3ccc(-c4nnc(SCC(=O)c5ccc(Cl)cc5)o4)cc3[nH]2)cc1` [4l, 2-((5-(2-(4-Methoxyphenyl)-1H-benzimidazol-6-yl)-1,3,4-oxadiazol-2-yl)thio)-1-(4-chlorophenyl)-ethanone], for which the IC50 was 47.8 µM in the experiment on CCD-19Lu cell line; 49.1 µM in the experiment on A549 cell line; 22.6 µM in the experiment on MCF-7 cell line; 19.5 µM with hTERT-HPNE cell line; 42.1 µM in the experiment with PANC-1 cell line.
In the case of `COc1ccc(-c2nc3ccc(-c4nnc(SCC(=O)c5ccc(F)cc5F)o4)cc3[nH]2)cc1` [4p, 2-((5-(2-(4-Methoxyphenyl)-1H-benzimidazol-6-yl)-1,3,4-oxadiazol-2-yl)thio)-1-(2,4-diflorophenyl)-ethanone], the 50% inhibitory concentration (IC50) with CCD-19Lu cell line was 14.7 µM; with A549 cell line it was 14.9 µM; with MCF-7 cell line it was 37.1 µM; in the experiment on hTERT-HPNE cell line, 20.4 µM; in the experiment with PANC-1 cell line it was 32.6 µM.
On to `O=C(CSc1nnc(-c2ccc3nc(-c4ccc(O)cc4)[nH]c3c2)o1)c1ccc(O)c(O)c1` [4i, 2-((5-(2-(4-Hydroxyphenyl)-1H-benzimidazol-6-yl)-1,3,4-oxadiazol-2-yl)thio)-1-(3,4-dihydroxyphenyl)-ethanone], for which the 50% inhibitory concentration (IC50) in the experiment with CCD-19Lu cell line worked out at 13.9 µM; in the experiment with A549 cell line it was 21.1 µM; with MCF-7 cell line, 16.5 µM; in the experiment with hTERT-HPNE cell line, 10.1 µM; with PANC-1 cell line it was 23.8 µM.
As to `O=C(CSc1nnc(-c2ccc3nc(-c4ccc(O)cc4)[nH]c3c2)o1)c1ccc(F)cc1` [4d, 2-((5-(2-(4-Hydroxyphenyl)-1H-benzimidazol-6-yl)-1,3,4-oxadiazol-2-yl)thio)-1-(4-florophenyl)-ethanone], the 50% inhibitory concentration (IC50) with CCD-19Lu cell line came to 5.2 µM; with A549 cell line it was 10.3 µM; in the experiment with MCF-7 cell line, 10.1 µM; in the experiment on hTERT-HPNE cell line, 6.8 µM; in the experiment on PANC-1 cell line, 33.3 µM.
`O=C(CSc1nnc(-c2ccc3nc(-c4ccc(O)cc4)[nH]c3c2)o1)c1ccc(Cl)cc1Cl` [4h, 2-((5-(2-(4-Hydroxyphenyl)-1H-benzimidazol-6-yl)-1,3,4-oxadiazol-2-yl)thio)-1-(2,4-dichlorophenyl)-ethanone]: the IC50 was found to be 30.3 µM in the experiment on CCD-19Lu cell line; 14.6 µM with A549 cell line; 15.7 µM with MCF-7 cell line; 32.9 µM in the experiment on hTERT-HPNE cell line; 26.7 µM in the experiment with PANC-1 cell line.
For the molecule `N#Cc1ccc(C(=O)CSc2nnc(-c3ccc4nc(-c5ccc(O)cc5)[nH]c4c3)o2)cc1` [4f, 2-((5-(2-(4-Hydroxyphenyl)-1H-benzimidazol-6-yl)-1,3,4-oxadiazol-2-yl)thio)-1-(4-cyanophenyl)-ethanone], the IC50 in the experiment on CCD-19Lu cell line came out at 68.8 µM; in the experiment with A549 cell line, 50.7 µM; in the experiment with MCF-7 cell line it was 45.6 µM; in the experiment with hTERT-HPNE cell line, 74.9 µM; in the experiment on PANC-1 cell line, 60.4 µM.
The matching figures for `O=C(CSc1nnc(-c2ccc3nc(-c4ccc(O)cc4)[nH]c3c2)o1)c1ccc(F)cc1F` [4g, 2-((5-(2-(4-Hydroxyphenyl)-1H-benzimidazol-6-yl)-1,3,4-oxadiazol-2-yl)thio)-1-(2,4-diflorophenyl)-ethanone]: 31.8 µM, 16.8 µM, 30.7 µM, 17.1 µM and 36.6 µM.

For orientation: IC50 means the midpoint of a concentration-inhibition curve.
